Literature values in PMC7582727, “Functional Impact of BeKm-1, a High-Affinity hERG Blocker, on Cardiomyocytes Derived from Human-Induced Pluripotent Stem Cells” (International Journal of Molecular Sciences, 2020).

Assays:
[1] = test system: hERG channel; conditions: cited from earlier work
Description: The Kv11.1 channel (hERG) and the corresponding IKr current play a major role in cardiac repolarization (Figure S1). […] Long QT syndrome is one of the cardiac diseases that has been studied in the greatest detail. Type II long QT syndrome is associated with a decrease in IKr currents, as opposed to short QT syndrome, which is associated with increased IKr currents. Type II long QT syndrome is called “inherited” when a mutation in the gene encoding hERG, KCNH2, gives rise to a loss of ... || In this report, we focused on BeKm-1, a toxin that was originally isolated from the venom of Buthus eupeus scorpion. […] According to its 3D structure, the peptide adopts an α-helix and three β-strands organized in a twisted antiparallel β-sheet. By homology with other toxins, BeKm-1 is a member of the γ-KTx subfamily of scorpion toxins.

[2] = test system: hiPS-CMs; conditions: ref [13]; cited from earlier work
Description: In this study, we describe the effects of the high-affinity hERG blocker BeKm-1 on hiPS-CMs. By using a variety of approaches, we efficiently assessed these effects on the electrophysiological, calcium handling, and contractile properties of hiPS-CMs providing a large response picture of this natural peptide.

[3] = test system: rabbit isolated hearts; conditions: ref [14]; cited from earlier work
[4] = test system: integrated models; conditions: ref [15]; cited from earlier work

Row | SMILES | IC50 [1] | face of hERG channel acted on [1] | hERG channel block ([1]; non-selective compounds, no reference given) | chronotropic response, hiPS-CMs [2] | chronotropic response, rabbit isolated hearts [3] | bradycardic effects [4]
2 | CN(C)CCCN1c2ccccc2Sc2ccc(Cl)cc21 [chlorpromazine] | – | – | block hERG channels | – | – | –
3 | CN(CCOc1ccc(NS(C)(=O)=O)cc1)CCc1ccc(NS(C)(=O)=O)cc1 [dofetilide] | […] | […] | – | negative chronotropic response | negative chronotropic response | bradycardic effects
